Measured values taken from patent publication US20210393745A1, “OLIGOMER EXTENDED INSULIN-FC CONJUGATES AND THEIR MEDICAL USE” (Novo Nordisk A/S, priority 2018, published 2021).

How the values were obtained:
[1] = biological target: T1, membrane-associated human IR-A (Homo sapiens, UniProt P06213); assay: Insulin receptor affinity on membrane associated receptors (SPA), IR-A; type: binding; conditions: relative to human insulin
T1 construct: expressed in transfected cells; host or cells: BHK cells, pZem219B vector, plasma membrane preparation
Description: (§1) Membrane-associated human IR and IGF-1R are purified from BHK cells stably transfected with the pZem219B vector containing either the human IR-A, IR-B or IGF-IR insert. BHK cells are harvested and homogenized in ice-cold buffer (25 mM HEPES pH 7.4, 25 mM CaCl2 and 1 mM MgCl2, 250 mg/L bacitracin, 0.1 mM Pefablock). The homogenates are layered on a 41% (w/v) sucrose cushion and centrifuged for 75 minutes at 95000 g at 4° C. The plasma membranes are collected, diluted 1:5 with buffer (as above) and centrifuged again for 45 minutes at 40000 g at 4° C. The pellets are resuspended in a minimal volume of buffer and drawn through a needle (size 23) three times before storage at −80° C. until usage. The relative binding affinity for either of the membrane-associated human IR-A, IR-B or IGF-1R is determined by competition binding in a SPA setup. IR assays are performed in duplicate in 96-well OptiPlates (Perkin-Elmer Life Sciences). Membrane protein is incubated with gentle agitation for 150 minutes at 25° C. with 50 pM [^125IA14Y]-human insulin in a total volume of […] assay buffer (50 mM HEPES, 150 mM NaCl, 5 mM MgSO4, 0.01% Triton X-100, 0.1% (w/v) HSA (Sigma A1887), Complete EDTA-free protease inhibitors), 50 μg of wheat germ agglutinate (WGA)-coated PVT microspheres (GE Healthcare) and increasing concentrations of ligand. Assays are terminated by centrifugation of the plate at 2000 rpm for 2 minutes and bound radioactivity quantified by counting on a TopCount NXT (Perkin-Elmer Life Sciences).
(§2) IGF-1R assays are conducted essentially as for the IR binding assays except that membrane-associated IGF-1R and 50 pM [^125I-Tyr31]-human IGF-1 were employed.

[2] = biological target: T2, membrane-associated human IR-B (Homo sapiens, UniProt P06213); assay: Insulin receptor affinity on membrane associated receptors (SPA), IR-B; type: binding; conditions: relative to human insulin
T2 construct: expressed in transfected cells; host or cells: BHK cells, pZem219B vector, plasma membrane preparation
Description: as §1, §2

[3] = biological target: T3, membrane-associated human IGF-1R (Homo sapiens, UniProt P08069); assay: IGF-1 receptor affinity on membrane associated receptors (SPA); type: binding; conditions: membrane-associated IGF-1R, relative to human insulin
T3 construct: expressed in transfected cells; host or cells: BHK cells, pZem219B vector, plasma membrane preparation
Description: as §1, §2

primary rat adipocytes = assay: Lipogenesis in rat adipocytes; type: cell-based; conditions: relative to human insulin
Description: As a measure of in vitro potency of the insulin conjugatess of the invention, lipogenesis can be used. Primary rat adipocytes are isolated from the epididymale fat pads and incubated with 3H-glucose in buffer containing e.g. 0.1% fat free HSA and either standard (human insulin, HI) or insulin conjugates of the invention. The labelled glucose is converted into extractable lipids in a dose dependent way, resulting in full dose response curves. The result is expressed as relative potency (%) with 95% confidence limits of insulin of the invention compared to standard (HI).

[4] = In vivo PK after s.c. dosing, normal rats; set-up: species or system Sprague-Dawley rat; conditions: s.c. 30 nmol/kg, mean value
Description: (§3) Insulin-Fc conjugates were tested in vivo by subcutaneous (s.c.) administration to normal and streptozotocin (STZ) treated male Sprague-Dawley (SD) rats.
(§4) The rats were dosed s.c. in the neck region with a dose of 30 nmol/kg of the insulin-Fc conjugates. Blood samples for blood glucose and plasma insulin analysis were collected from the tongue vein up to 10 days post dosing. The insulin-Fc concentrations were measured by immuno-assay (LLOQ=1000 pM) and the resulting half-life values after s.c. dosing are shown in Table 4. The PK profiles for normal rats are shown in FIG. 3 and for streptozotocin treated rats in FIG. 6. Blood glucose (BG) was measured using Biosen S Line (EKF) and the BG and baseline corrected BG profiles for normal rats are shown in FIGS. 1 and 2 and for streptozotocin treated rats in FIGS. 4 and 5 respectively.

[5] = In vivo PK after s.c. dosing, streptozotocin treated rats; set-up: species or system Sprague-Dawley rat; conditions: s.c. 30 nmol/kg, mean value
Description: as §3, §4

[6] = test system: normal Sprague-Dawley rats; assay: In vivo PD, blood glucose lowering in normal rats; set-up: species or system Sprague-Dawley rat; conditions: s.c. 30 nmol/kg, baseline corrected BG up to 10 days, difference from vehicle, mean
Description: as §3, §4

[7] = test system: streptozotocin treated Sprague-Dawley rats; assay: In vivo PD, blood glucose lowering in streptozotocin treated rats; set-up: species or system Sprague-Dawley rat; conditions: s.c. 30 nmol/kg, baseline corrected BG up to 10 days, difference from vehicle, mean
Description: as §3, §4

[8] = Stability study: purity by anionic exchange chromatography; type: physicochemical; conditions: purity %(5° C.) − purity %(30° C.), 30 μM, pH 7.4
Description: Samples for stability studies were prepared by weighing out 8-10 mg freeze-dried material. The freeze-dried material was solubilized to […] in a premade solution A (5 mM phophate (pH 7.4), 140 mM NaCl and 70 ppm polysorbate 20). Protein concentration was determined using absorbance at 280 nm using a Nanodrop 2000 (Thermo Fisher Scientific Inc.) and theoretical extinction coefficients. Dilution into solution A was done to reach a final concentration of 30 μM.
Anionic exchange chromatography was performed on an Ultra-Performance Liquid Chromatography system (Waters Acquity H-Class) equipped with a fluorescence detector (Waters Acquity FLR Detector). A Bio SAX column with dimensions 50×4.6 mm from Agilent, kept at 30° C., was used in gradient elution mode. Mobile phase A was 5/95 (v/v), acetonitrile/water with 25 mM BIS-TRIS propane, pH 7.3 and mobile phase B was 5/95 (v/v), acetonitrile/water with 25 mM BIS-TRIS propane and 350 mM NaCl, pH 7.3. Injection volume was 3 μL. The flow rate was kept at 0.5 mL/min with a linear gradient from 10 to 47% B in 3 min followed by a linear gradient from 47 to 55% B in 30 min. Peaks were detected with an emission wavelength of […] and data processing is performed with the EMPOWER 3 software from Waters. Samples were analysed for purity as percent API in relation to all other species.
Reported as Δ purity %=purity %(5° C.)−purity % (30° C.).
Stability of Fc-insulin analogues was evaluated by comparing purity from anion exchange chromatography and formation of high molecular weight products (HMWP) at 5° C. (control) versus 30° C. (heat induced stress). […] The amount of HMWP was decreased by 0.5-2% in the stressed sample versus the control, i.e. some aggregated material has disassociated during incubation at 30° C.

hFcRn ectodomain = biological target: T4, hFcRn ectodomain (Homo sapiens, UniProt P55899); assay: SPR analysis of the binding of hFcRn ECD; conditions: pH 6.0, 25° C., steady-state fitting; read-out: Kn (μM), binding of hFcRn ECD
T4 construct: the hFcRn ectodomain diluted at 4000 nM with 2-fold serial dilutions was injected
Description: First, the three Insulin-Fc samples diluted at 10 ug/ml and the wild-type hIgG4 Fc (produced in HEK293 cells, i.e. glycosylated) diluted at 30 ug/ml in 10 mM sodium acetate (pH 4.5) (GE Healthcare, catalogue #BR100350) were immobilized on a CMD50L sensor chip (XanTec Bioanalytics GmbH) at spot 2 or 4 at 70-90 RU in each used flow cell via amine coupling with 1×HBS-EP+ (pH 7.4) (GE Healthcare, catalogue #BR-1006-69) used as the running buffer. The wild-type hIgG4 Fc was used as the control sample. In each used flow cell, spots 2, 3 and 4 were activated by 100 mM N-hydroxysuccinimide (NHS) and 400 mM N-ethyl-N′-dimethylaminopropyl carbodiimide hydrochloride (EDC) mixed at equal volume before the immobilization and blocked by 1 M ethanolamine hydrochloride-NaOH (pH 8.5) after the immobilization. NHS, EDC and ethanolamine were obtained from the Amine Coupling Kit, type 2 (GE Healthcare, catalogue #BR100633).
Next, the hFcRn ectodomain diluted at 4000 nM with 2-fold serial dilutions was injected through each used flow cell for 60 sec to allow for binding of the hFcRn ectodomain to the Insulin-Fc conjugates and wild-type hIgG4 Fc samples immobilized on the sensor chip, followed by dissociation for 180 sec. 1×PBS-EP+ (pH 6.0) was used as the dilution buffer for the hFcRn ectodomain and the running buffer in each binding cycle at the flow rate of 30 ul/min. After each binding cycle, the sensor chip was regenerated with a 60 sec injection of 1×PBS-EP+ (pH 7.4) at the flow rate of 30 ul/min. The 1×PBS-EP+ (pH 7.4) buffer was prepared by diluting 0.5 M EDTA (pH 8.0) (Invitrogen, catalogue #15575038) at 3 mM into 1×PBS-P+ (GE Healthcare, catalogue #28995084). The 1×PBS-EP+ (pH 6.0) buffer was prepared by adjusting the pH of the 1×PBS-EP+ buffer from 7.4 to 6.0 using ˜10 M HCl. The affinities (equilibrium dissociation constants, KD) were determined via steady-state fitting of the binding curves using the 1:1 binding model in Biacore 4000 Evaluation Software 1.0 (GE Healthcare).

T4 sequence (P55899 24-297 limits assumed): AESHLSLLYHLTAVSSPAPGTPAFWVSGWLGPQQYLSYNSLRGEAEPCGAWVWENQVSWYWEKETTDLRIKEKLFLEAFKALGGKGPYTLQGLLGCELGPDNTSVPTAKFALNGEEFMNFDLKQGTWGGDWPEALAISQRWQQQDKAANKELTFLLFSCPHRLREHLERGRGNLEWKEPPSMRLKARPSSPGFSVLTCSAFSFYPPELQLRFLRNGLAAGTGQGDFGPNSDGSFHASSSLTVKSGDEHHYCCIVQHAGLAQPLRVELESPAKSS
T4 sequence (P61769 21-119 partner): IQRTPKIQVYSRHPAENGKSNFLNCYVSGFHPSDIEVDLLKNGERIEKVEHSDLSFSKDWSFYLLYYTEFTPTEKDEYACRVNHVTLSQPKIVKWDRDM
T2 sequence (P06213 28-758 limits assumed): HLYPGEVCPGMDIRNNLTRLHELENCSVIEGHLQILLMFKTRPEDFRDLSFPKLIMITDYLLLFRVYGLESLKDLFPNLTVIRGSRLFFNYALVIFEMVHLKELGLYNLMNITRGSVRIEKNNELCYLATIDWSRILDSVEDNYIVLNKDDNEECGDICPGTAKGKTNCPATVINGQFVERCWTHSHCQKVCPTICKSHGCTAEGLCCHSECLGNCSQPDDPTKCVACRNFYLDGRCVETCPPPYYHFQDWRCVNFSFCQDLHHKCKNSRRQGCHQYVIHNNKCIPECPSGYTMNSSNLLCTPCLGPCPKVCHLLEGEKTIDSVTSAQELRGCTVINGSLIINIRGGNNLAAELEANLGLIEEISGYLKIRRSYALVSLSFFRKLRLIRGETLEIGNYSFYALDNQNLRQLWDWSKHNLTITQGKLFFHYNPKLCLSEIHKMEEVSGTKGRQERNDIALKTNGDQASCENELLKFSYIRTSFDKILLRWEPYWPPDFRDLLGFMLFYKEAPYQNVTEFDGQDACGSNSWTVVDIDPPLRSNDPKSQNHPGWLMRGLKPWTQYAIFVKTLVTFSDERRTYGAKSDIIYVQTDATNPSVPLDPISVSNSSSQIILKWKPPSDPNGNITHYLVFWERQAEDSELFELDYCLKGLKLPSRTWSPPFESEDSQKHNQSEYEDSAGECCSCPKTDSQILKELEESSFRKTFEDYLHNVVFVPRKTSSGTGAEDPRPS
T2 sequence (P06213 763-1382 partner limits assumed): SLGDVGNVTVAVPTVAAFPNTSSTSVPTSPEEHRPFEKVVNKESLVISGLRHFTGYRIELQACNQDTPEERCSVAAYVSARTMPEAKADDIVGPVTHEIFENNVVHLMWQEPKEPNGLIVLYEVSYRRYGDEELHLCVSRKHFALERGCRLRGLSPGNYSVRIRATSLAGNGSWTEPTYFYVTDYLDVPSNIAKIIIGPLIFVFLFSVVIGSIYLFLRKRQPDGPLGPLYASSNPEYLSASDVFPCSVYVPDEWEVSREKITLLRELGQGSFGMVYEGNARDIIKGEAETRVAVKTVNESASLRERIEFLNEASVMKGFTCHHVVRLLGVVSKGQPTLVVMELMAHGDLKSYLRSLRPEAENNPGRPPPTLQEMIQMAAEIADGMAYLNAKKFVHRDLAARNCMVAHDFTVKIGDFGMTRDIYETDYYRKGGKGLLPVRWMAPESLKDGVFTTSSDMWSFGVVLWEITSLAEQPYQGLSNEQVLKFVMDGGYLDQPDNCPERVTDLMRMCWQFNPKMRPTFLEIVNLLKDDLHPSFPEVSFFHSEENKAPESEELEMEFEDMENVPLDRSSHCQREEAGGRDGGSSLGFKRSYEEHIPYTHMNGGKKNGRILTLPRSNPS
T1 sequence (P06213 28-1370 isoform P06213-2 limits assumed): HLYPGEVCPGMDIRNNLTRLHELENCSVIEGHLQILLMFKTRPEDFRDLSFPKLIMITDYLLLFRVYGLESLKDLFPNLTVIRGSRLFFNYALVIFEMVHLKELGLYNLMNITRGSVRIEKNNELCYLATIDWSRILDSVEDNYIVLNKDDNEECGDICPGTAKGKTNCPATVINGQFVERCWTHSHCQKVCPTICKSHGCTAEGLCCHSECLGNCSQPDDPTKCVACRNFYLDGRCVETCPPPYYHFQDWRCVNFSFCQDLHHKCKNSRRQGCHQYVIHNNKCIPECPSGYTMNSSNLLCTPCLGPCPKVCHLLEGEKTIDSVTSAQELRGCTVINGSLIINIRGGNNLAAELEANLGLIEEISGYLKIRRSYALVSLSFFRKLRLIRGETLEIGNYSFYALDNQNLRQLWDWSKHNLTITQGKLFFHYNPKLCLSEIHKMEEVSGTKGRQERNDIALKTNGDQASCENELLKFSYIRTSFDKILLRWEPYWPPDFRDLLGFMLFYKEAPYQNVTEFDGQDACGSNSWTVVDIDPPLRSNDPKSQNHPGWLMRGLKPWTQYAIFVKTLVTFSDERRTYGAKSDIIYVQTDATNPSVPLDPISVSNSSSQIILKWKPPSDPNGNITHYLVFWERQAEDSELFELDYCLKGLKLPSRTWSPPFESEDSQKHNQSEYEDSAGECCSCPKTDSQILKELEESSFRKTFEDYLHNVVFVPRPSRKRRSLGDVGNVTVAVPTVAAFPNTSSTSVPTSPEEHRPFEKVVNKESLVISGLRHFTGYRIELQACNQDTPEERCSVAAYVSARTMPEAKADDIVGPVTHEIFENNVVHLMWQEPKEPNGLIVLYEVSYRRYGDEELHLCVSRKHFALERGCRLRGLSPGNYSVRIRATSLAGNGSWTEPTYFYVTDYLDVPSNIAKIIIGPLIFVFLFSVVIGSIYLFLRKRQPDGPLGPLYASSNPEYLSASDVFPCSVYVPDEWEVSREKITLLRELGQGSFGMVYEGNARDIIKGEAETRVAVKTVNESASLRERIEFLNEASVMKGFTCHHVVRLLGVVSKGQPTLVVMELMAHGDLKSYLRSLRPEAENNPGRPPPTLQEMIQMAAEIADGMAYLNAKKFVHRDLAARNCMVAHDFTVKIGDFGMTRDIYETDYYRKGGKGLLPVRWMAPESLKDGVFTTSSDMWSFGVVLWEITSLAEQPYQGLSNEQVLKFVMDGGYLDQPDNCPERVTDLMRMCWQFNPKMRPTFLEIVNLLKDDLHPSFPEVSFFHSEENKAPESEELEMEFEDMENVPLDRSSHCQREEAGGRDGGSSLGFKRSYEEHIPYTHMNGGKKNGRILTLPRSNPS
T1 sequence (P06213 763-1382 partner limits assumed): as the sequence (P06213 763-1382 partner limits assumed) above
T3 sequence (P08069 31-736 limits assumed): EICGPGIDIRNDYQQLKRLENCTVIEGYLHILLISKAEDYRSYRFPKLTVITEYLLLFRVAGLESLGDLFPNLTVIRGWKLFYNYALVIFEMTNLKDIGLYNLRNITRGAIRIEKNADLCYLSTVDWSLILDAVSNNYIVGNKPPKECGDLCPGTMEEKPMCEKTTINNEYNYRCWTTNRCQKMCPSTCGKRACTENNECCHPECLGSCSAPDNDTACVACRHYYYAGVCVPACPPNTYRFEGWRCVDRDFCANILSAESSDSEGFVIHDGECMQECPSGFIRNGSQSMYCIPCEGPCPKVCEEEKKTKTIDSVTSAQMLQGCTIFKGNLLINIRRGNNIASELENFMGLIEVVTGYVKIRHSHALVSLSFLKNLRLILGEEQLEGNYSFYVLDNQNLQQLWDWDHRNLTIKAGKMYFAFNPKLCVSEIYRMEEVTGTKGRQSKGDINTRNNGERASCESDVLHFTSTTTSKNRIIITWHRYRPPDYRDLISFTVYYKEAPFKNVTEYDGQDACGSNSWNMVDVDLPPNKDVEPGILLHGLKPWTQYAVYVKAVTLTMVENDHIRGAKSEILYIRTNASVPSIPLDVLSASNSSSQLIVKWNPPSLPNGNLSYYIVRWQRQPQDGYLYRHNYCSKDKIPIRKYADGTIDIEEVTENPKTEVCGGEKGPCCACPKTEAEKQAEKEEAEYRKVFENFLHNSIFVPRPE
T3 sequence (P08069 741-1367 partner limits assumed): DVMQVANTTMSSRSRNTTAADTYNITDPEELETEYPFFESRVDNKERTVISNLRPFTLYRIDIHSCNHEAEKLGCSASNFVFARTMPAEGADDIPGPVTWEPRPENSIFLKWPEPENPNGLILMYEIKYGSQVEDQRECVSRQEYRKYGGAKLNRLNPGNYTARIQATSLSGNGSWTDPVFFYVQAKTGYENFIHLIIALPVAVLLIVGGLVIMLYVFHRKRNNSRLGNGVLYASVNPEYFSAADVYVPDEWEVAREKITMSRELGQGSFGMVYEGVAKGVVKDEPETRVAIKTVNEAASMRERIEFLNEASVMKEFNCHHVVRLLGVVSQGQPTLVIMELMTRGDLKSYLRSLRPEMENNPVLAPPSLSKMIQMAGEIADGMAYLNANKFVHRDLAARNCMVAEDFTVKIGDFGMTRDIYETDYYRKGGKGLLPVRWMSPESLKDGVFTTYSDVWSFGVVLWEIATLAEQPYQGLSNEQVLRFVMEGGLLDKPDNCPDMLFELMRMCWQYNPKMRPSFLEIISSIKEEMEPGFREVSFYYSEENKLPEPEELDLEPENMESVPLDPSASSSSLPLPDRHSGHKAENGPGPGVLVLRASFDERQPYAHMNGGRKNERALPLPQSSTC

**Q.** For “(A14E, A21G, A22(GQEP)11, A66G, A67Q, A68E, A69K^, A70P, B16E, B25H, B29R, desB30 human insulin)/(226A, 227G, 228P, 234A, 235K, 297E, 315Q, 384Q, des447 hIgG4-Fc(226-447))3,5-bis[(2-acetyl)amino]benzoyl Conjugate [Example 5.3]”, which “hIR-A mem Rel. aff. (%)” value [1] is on record?
**A.** The value was 0.66%.

**Q.** What about the “hIR-B mem Rel. aff. (%)” value [2] of the same substance?
**A.** Its value is 0.59%.

**Q.** And the “IGF1R mem Rel. aff. (%)” value [3]?
**A.** The value was 0.29%.

**Q.** And the “Lipogenesis Rel. pot. (%)” value (primary rat adipocytes)?
**A.** Its value is 0.64%.

**Q.** And the “PK normal rat [T1/2, s.c. (h)]” value [4]?
**A.** Its value is 48 h.

**Q.** What about the “PK STZ rat [T1/2, s.c. (h)]” value [5] of the same substance?
**A.** Its value is 50 h.

**Q.** And the “AOCBG normal rat” value [6]?
**A.** The value was 248 mM·h.

**Q.** And the “AOCBG STZ rat” value [7]?
**A.** The value was 2771 mM·h.

**Q.** And the Δ purity [8]?
**A.** Its Δ purity is 4.3%.

**Q.** And the Kd (hFcRn ectodomain)?
**A.** The Kd was 1.5 µM.
